Values quoted from earlier work as cited in patent publication US20080287471A1, “4'-Substituted Carbovir And Abacavir-Derivatives As Well As Related Compounds With Hiv And Hcv Antiviral Activity” (priority 2003, published 2008).

System: HIV
Details: after a short course of abacavir monotherapy

Q: Which “average reduction in viral load” value does the source give for `Nc1nc(NC2CC2)c2ncn([C@H]3C=C[C@@H](CO)C3)c2n1` [abacavir, Abacavir] here?
A: more than 1.4 log 10 RNA copies/ml
